From US10772893B2, “2-(morpholin-4-yl)-1,7-naphthyridines” (BAYER PHARMA AKTIENGESELLSCHAFT, priority 2014, dated 2020) come the findings set out here.

Experiment in all cases: Proliferation assay, crystal violet staining
One assay has as its system HeLa-MaTu-ADR cells. The assay is classed as cell-based. As to conditions: Homo sapiens, 96 h, 4 days incubation, read-out: Inhibition of HeLa-MaTu-ADR cell proliferation.
Another assay has as its system Caco-2 cells. The assay is classed as cell-based. The following applies: Homo sapiens, Caco-2, 96 h, 4 days incubation, read-out: Inhibition of Caco-2 cell proliferation.
The subject of a further assay is NCI-H460 cells. As to conditions: Homo sapiens, NCI-H460, 96 h, read-out: Inhibition of NCI-H460 cell proliferation, NCI-H460 cells, 4 days incubation.
Another assay relates to DU145 cells. The following applies: Homo sapiens, DU-145, 96 h, read-out: Inhibition of DU145 cell proliferation, DU145 cells, 4 days incubation.
A further assay has as its system HeLa cells. As to conditions: Homo sapiens, 96 h, read-out: Inhibition of HeLa cell proliferation, HeLa cells, 4 days incubation.

Structures are written as SMILES. pIC50: −log10 of the molar value. Counter-ions that a name gives are not always drawn. A value given as a limit tells only on which side of the number the result lay.

Protocol for Caco-2 cells: (§1) After 24 hours, the cells of one plate (zero plate) were dyed with crystal violet (see below), whereas the medium of the other plates was replaced with fresh culture medium (200 μl) to which the test substances were added in various concentrations (0 μM, and also in the range of 0.001-10 μM; the final concentration of the solvent dimethyl sulphoxide was 0.1 or 0.5%). The cells were incubated for 4 days in the presence of the test substances. […] After washing the fixed cells three times with water, the plates were dried at room temperature. The cells were stained by adding 100 μl/measurement point of a 0.1% strength crystal violet solution (pH adjusted to pH 3 by adding acetic acid). After washing the cells three times with water, the plates were dried at room temperature. The dye was dissolved by adding 100 μl/measurement point of a 10% strength acetic acid solution. […] The percentage change in cell growth was calculated by normalizing the measured values to the absorbance values of the zero plate (=0%) and the absorbance of the untreated (0 W) cells (=100%). The IC50 values were determined by means of a four parameter fit.
Protocol for DU145 cells: as §1
Protocol for HeLa cells: as §1
Protocol for HeLa-MaTu-ADR cells: as §1
Protocol for NCI-H460 cells: as §1

In the case of `CN=S(C)(=O)c1ccc(-c2cc(N3CCOCC3)nc3c(-c4ccn[nH]4)nccc23)cc1` (centres unmarked) [Example 5, 4-(4-(N,S-dimethylsulfonimidoyl)phenyl)-2-[morpholin-4-yl]-8-(1H-pyrazol-5-yl)-1,7-naphthyridine], the pIC50 is less than 5.52 in the assay with HeLa-MaTu-ADR cells, 5.66 in the assay on Caco-2 cells, 6.19 with NCI-H460 cells and 6.43 with DU145 cells.
As to `CS(=O)(=O)c1ccc(-c2cc(N3CCOCC3)nc3c(-c4cc[nH]n4)nccc23)cc1` [Example 7, 4-(4-methanesulphonylphenyl)-2-(morpholin-4-yl)-8-(1H-pyrazol-3-yl)-[1,7]naphthyridine], the pIC50 in the assay with Caco-2 cells was 5.23; in the assay on HeLa cells, 5.88; in the assay on NCI-H460 cells, 5.99; in the assay with DU145 cells it was 5.80.
`CS(=O)(=O)c1ccccc1-c1cc(N2CCOCC2)nc2c(-c3cc[nH]n3)nccc12` [Example 8, 4-(2-methanesulphonylphenyl)-2-(morpholin-4-yl)-8-(1H-pyrazol-3-yl)-[1,7]naphthyridine Hydrochloride]: the pIC50 was less than 5.52 in the assay on HeLa-MaTu-ADR cells; less than 5.52 with Caco-2 cells; 5.65 with HeLa cells; 6.04 in the assay on NCI-H460 cells; 5.69 with DU145 cells.
Take `C=C(C)c1cc(N2CCOCC2)nc2c(-c3cc[nH]n3)nccc12` [Example 10, 4-Isopropenyl-2-(morpholin-4-yl)-8-(1H-pyrazol-3-yl)-[1,7]naphthyridine]: the pIC50 was 5.89 with HeLa-MaTu-ADR cells; 5.84 in the assay with Caco-2 cells; 6.30 with HeLa cells; 6.35 with NCI-H460 cells; 6.08 in the assay with DU145 cells.
The corresponding values for `CS(=O)(=O)c1cccc(-c2cc(N3CCOCC3)nc3c(-c4cc[nH]n4)nccc23)c1` [Example 15, 4-(3-methanesulphonylphenyl)-2-(morpholin-4-yl)-8-(1H-pyrazol-3-yl)-[1,7]naphthyridine] are less than 5.52, 5.76, 5.85, 6.28 and 6.09.
In the case of `CS(=O)(=O)c1ccc(-c2cc(N3CCOCC3)nc3c(-c4ccn[nH]4)nccc23)c(F)c1` [Example 24], the pIC50 in the assay on HeLa-MaTu-ADR cells is 5.47; in the assay with Caco-2 cells, 6.08; in the assay with NCI-H460 cells, 6.42; in the assay on DU145 cells it was 5.87.
For `C[C@@H]1COCCN1c1cc(-c2ccc(S(C)(=O)=O)cc2)c2ccnc(-c3cc[nH]n3)c2n1` [Example 26, 4-(4-methanesulphonylphenyl)-2-((R)-3-methylmorpholin-4-yl)-8-(2H-pyrazol-3-yl)-[1,7]naphthyridine], the pIC50 in the assay on HeLa-MaTu-ADR cells is less than 6.00; in the assay on Caco-2 cells it was less than 6.00; in the assay on HeLa cells it was 6.53; in the assay on NCI-H460 cells it was 6.23; with DU145 cells, 6.14.
`C[C@@H]1COCCN1c1cc(C2CC2)c2ccnc(-c3cc[nH]n3)c2n1` [Example 29]: the pIC50 in the assay on HeLa-MaTu-ADR cells is 6.30; with Caco-2 cells it was 6.24; in the assay with HeLa cells, 6.40; with NCI-H460 cells it was 6.61; in the assay on DU145 cells, 6.54.
Consider `C[C@@H]1COCCN1c1cc(-c2ccc(S(C)(=N)=O)cc2)c2ccnc(-c3ccn[nH]3)c2n1` (stereo partly drawn) [Example 30, 4-[2-((R)-3-methylmorpholin-4-yl)-8-(2H-pyrazol-3-yl)-[1,7]naphthyridine-4-yl]phenyl-S-methylsulphoximide], for which the pIC50 in the assay on HeLa-MaTu-ADR cells was less than 5.52; with Caco-2 cells, 5.54; with HeLa cells, 6.29; in the assay on NCI-H460 cells, 6.53; in the assay on DU145 cells, 6.49.
The matching figures for `C[C@@H]1COCCN1c1cc(-c2cccc(S(C)(=N)=O)c2)c2ccnc(-c3ccn[nH]3)c2n1` (stereo partly drawn) [Example 31, 3-[2-((R)-3-methylmorpholin-4-yl)-8-(2H-pyrazol-3-yl)-[1,7]naphthyridine-4-yl]phenyl-S-methylsulphoximide]: less than 5.52, less than 5.52, 5.90, 6.16 and 5.95.
The corresponding values for `CS(=O)(=O)c1cc(N2CCOCC2)nc2c(-c3cc[nH]n3)nccc12` [Example 32] are less than 5.52, less than 5.52, 5.81, less than 5.52 and 5.74.
In the case of `C[C@@H]1COCCN1c1cc(S(C)(=O)=O)c2ccnc(-c3ccn[nH]3)c2n1` [Example 33, 2-[(3R)-3-methylmorpholin-4-yl]-4-(methylsulfonyl)-8-(1H-pyrazol-5-yl)-1,7-naphthyridine], the pIC50 in the assay on HeLa-MaTu-ADR cells was less than 5.52; in the assay with Caco-2 cells, 6.19; with NCI-H460 cells, 6.57; in the assay with DU145 cells it was 6.00.
In the case of `N#Cc1cc(N2CCOCC2)nc2c(-c3cc[nH]n3)nccc12` [Example 34, 2-(morpholin-4-yl)-8-(1H-pyrazol-3-yl)-[1,7]naphthyridine-4-carbonitrile], the pIC50 was less than 5.52 in the assay on HeLa-MaTu-ADR cells; 5.30 in the assay on Caco-2 cells; 5.99 in the assay with HeLa cells; 5.79 in the assay with NCI-H460 cells; 5.62 with DU145 cells.
Turning to `CS(=O)(=O)C1(c2cc(N3CCOCC3)nc3c(-c4ccn[nH]4)nccc23)CC1` [Example 39, 4-(1-methanesulphonycyclopropyl)-2-(morpholin-4-yl)-8-(2H-pyrazol-3-yl)-[1,7]naphthyridine], the pIC50 in the assay on HeLa cells is 5.98; in the assay on NCI-H460 cells it was 6.40; in the assay with DU145 cells, 6.08.
As for `CC(C)Oc1cc(N2CCOCC2)nc2c(-c3cc[nH]n3)nccc12` [Example 40, 4-Isopropoxy-2-(morpholin-4-yl)-8-(1H-pyrazol-3-yl)-[1,7]naphthyridine], the pIC50 in the assay on HeLa-MaTu-ADR cells is 5.65; with Caco-2 cells it was 5.71; in the assay with HeLa cells, 5.57; in the assay with NCI-H460 cells, 6.17; in the assay on DU145 cells, 5.94.
On to `COc1cc(N2CCOCC2)nc2c(-c3cc[nH]n3)nccc12` [Example 44, 4-methoxy-2-(morpholin-4-yl)-8-(1H-pyrazol-3-yl)-[1,7]naphthyridine], for which the pIC50 in the assay on HeLa-MaTu-ADR cells is less than 5.00; in the assay with Caco-2 cells, 5.11; with HeLa cells, 6.00; with NCI-H460 cells, 5.70; in the assay with DU145 cells, 5.35.
For the molecule `CC(C)Oc1cc(N2CCOC[C@H]2C)nc2c(-c3cc[nH]n3)nccc12` [Example 51, 4-Isopropoxy-2-((R)-3-methylmorpholin-4-yl)-8-(1H-pyrazol-3-yl)-[1,7]naphthyridine], the pIC50 is 5.74 in the assay with HeLa-MaTu-ADR cells; 5.53 in the assay with Caco-2 cells; 5.91 in the assay on HeLa cells; 6.41 in the assay on NCI-H460 cells; 6.05 in the assay on DU145 cells.
The matching figures for `c1cc2c(C3CCOCC3)cc(N3CCOCC3)nc2c(-c2cc[nH]n2)n1` [Example 60, 2-(morpholin-4-yl)-8-(1H-pyrazol-5-yl)-4-(tetrahydro-2H-pyran-4-yl)-1,7-naphthyridine]: 5.66, 5.70, 6.00, 6.16 and 6.14.
In the case of `CSc1cc(N2CCOC[C@H]2C)nc2c(-c3ccn[nH]3)nccc12` [Example 63, 2-[(3R)-3-methylmorpholin-4-yl]-4-(methylsulfanyl)-8-(1H-pyrazol-5-yl)-1,7-naphthyridine], the pIC50 was 5.82 in the assay with HeLa-MaTu-ADR cells, 5.81 with Caco-2 cells, 6.51 in the assay with NCI-H460 cells and 6.04 in the assay with DU145 cells.
On to `C[C@@H]1COCCN1c1cc(N=S2(=O)CCOCC2)c2ccnc(-c3ccn[nH]3)c2n1` [Example 64, N-{2-[(3R)-3-methylmorpholin-4-yl]-8-(1H-pyrazol-5-yl)-1,7-naphthyridin-4-yl}-1,4λ^4-oxathian-4-imine 4-oxide], for which the pIC50 was 5.93 in the assay on HeLa-MaTu-ADR cells, 6.07 with Caco-2 cells, 7.03 in the assay with NCI-H460 cells and 6.30 in the assay with DU145 cells.
On to `C[C@@H]1COCCN1c1cc(N2CCNCC2)c2ccnc(-c3ccn[nH]3)c2n1` [Example 66, 2-[(3R)-3-methylmorpholin-4-yl]-4-(piperazin-1-yl)-8-(1H-pyrazol-5-yl)-1,7-naphthyridine], for which the pIC50 was 5.47 in the assay with Caco-2 cells and 6.90 in the assay on NCI-H460 cells.
Regarding `Cc1nc(S(C)(=O)=O)ccc1-c1cc(N2CCOC[C@H]2C)nc2c(-c3ccn[nH]3)nccc12` [Example 73, 4-[2-methyl-6-(methylsulfonyl)pyridin-3-yl]-2-[(3R)-3-methylmorpholin-4-yl]-8-(1H-pyrazol-5-yl)-1,7-naphthyridine], the pIC50 is 5.75 in the assay with HeLa-MaTu-ADR cells; 6.20 in the assay on Caco-2 cells; 6.74 in the assay with HeLa cells; 7.23 in the assay with NCI-H460 cells; 6.13 with DU145 cells.
As to `C[C@@H]1COCCN1c1cc(-c2ccc(S(C)(=O)=O)cc2F)c2ccnc(-c3ccn[nH]3)c2n1` [Example 74, 4-[2-fluoro-4-(methylsulfonyl)phenyl]-2-[(3R)-3-methylmorpholin-4-yl]-8-(1H-pyrazol-5-yl)-1,7-naphthyridine], the pIC50 with HeLa-MaTu-ADR cells was less than 6.00; in the assay with Caco-2 cells it was less than 6.00; in the assay on HeLa cells, 6.69; with NCI-H460 cells it was less than 6.00; with DU145 cells it was less than 6.00.
For the molecule `c1cc(-c2nccc3c(N4CCn5ccnc5C4)cc(N4CCOCC4)nc23)[nH]n1` [Example 169, 4-(5,6-dihydroimidazo[1,2-a]pyrazin-7(8H)-yl)-2-(morpholin-4-yl)-8-(1H-pyrazol-5-yl)-1,7-naphthyridine], the pIC50 was less than 5.52 with HeLa-MaTu-ADR cells, less than 5.52 in the assay on Caco-2 cells and 6.14 in the assay on HeLa cells.
